From article PMC12775434, “Ultra-large virtual screening unveils potent agonists of the neuromodulatory orphan receptor GPR139” (Nature Communications, 2025) come the findings set out here.

Where “and” joins values, the source holds several entries; their conditions need not be identical. Equal entries are not always repeated. Where two headings read alike, the source gives them in different places.

The target in this test is T1, GPR139 (Homo sapiens, UniProt Q6DWJ6).
T1 sequence (Q6DWJ6 1-353): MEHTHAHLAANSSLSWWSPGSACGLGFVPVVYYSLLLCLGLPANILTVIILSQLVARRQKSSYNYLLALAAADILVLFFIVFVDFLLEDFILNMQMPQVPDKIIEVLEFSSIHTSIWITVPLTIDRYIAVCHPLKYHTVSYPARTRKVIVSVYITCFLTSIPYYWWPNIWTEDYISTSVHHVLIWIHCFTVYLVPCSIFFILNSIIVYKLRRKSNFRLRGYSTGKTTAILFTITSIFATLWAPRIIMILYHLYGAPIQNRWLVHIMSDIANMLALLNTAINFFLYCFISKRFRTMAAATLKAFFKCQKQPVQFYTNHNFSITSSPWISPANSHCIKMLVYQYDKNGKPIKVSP
The test is described as follows: Ca2+ mobilization assay, agonist mode, stable GPR139-CHOk1 cell line. The test is classed as cell-based. The note with it: for Emax: normalized to Lundbeck Cmp 1a. An outline of the steps: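 Agonist activity of compounds is assessed in stably transfected CHO-K1 cells using the calcium dye Fluo-4 at 37 °C in HEPES-buffered HBSS (pH 7.4). Efficacy is expressed relative to the reference agonist Lundbeck Cmp 1a, set as 100%.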

[1] abbreviates: Agonist mode, individual replicates (Supplementary Figure 4).
Setting [2] is: GPR139-CHOk1, read-out: EC50, Ca2+ mobilization.
[3] abbreviates: Supplementary Table 2, mean ± SEM, read-out: Emax (%) Ca2+.
Where [4] appears, read: log [Compound] M = -4.5, individual replicate columns.
Setting [5] is: log [Compound] M = -5.0, individual replicate columns.
The mark [6] stands for this setting: log [Compound] M = -5.5, individual replicate columns.
Where [7] appears, read: log [Compound] M = -6.0, individual replicate columns.
Where [8] appears, read: log [Compound] M = -6.5, individual replicate columns.
The mark [9] stands for this setting: log [Compound] M = -7.0, individual replicate columns.
The mark [10] stands for this setting: log [Compound] M = -7.5, individual replicate columns.
The mark [11] stands for this setting: log [Compound] M = -8.0, individual replicate columns.
[12] abbreviates: log [Compound] M = -8.5, individual replicate columns.
[13] abbreviates: log [Compound] M = -9.0, individual replicate columns.
The mark [14] stands for this setting: Supplementary Table 2, mean ± SEM, read-out: pEC50 Ca2+ (converted).

In the case of `COc1ccccc1-c1nc(CC(=O)NC(C)c2ccccc2)no1` (stereo not shown) [Compound 1.2, COC1=C(C2=NC(CC(NC(C3=CC=CC=C3)C)=O)=NO2)C=CC=C1], the “Ca2+ signal (% of Cmp 1a)” value reads like this: under setting [1], 84 % of Cmp 1a and 90 % of Cmp 1a and 64 % of Cmp 1a; under setting [4], 101 % of Cmp 1a and 98 % of Cmp 1a and 89 % of Cmp 1a and 111 % of Cmp 1a and 113 % of Cmp 1a; under setting [5], 95 % of Cmp 1a and 88 % of Cmp 1a and 96 % of Cmp 1a and 108 % of Cmp 1a (2×); under setting [6], 86 % of Cmp 1a and 100 % of Cmp 1a and 98 % of Cmp 1a and 101 % of Cmp 1a and 103 % of Cmp 1a; under setting [7], 77 % of Cmp 1a (2×) and 83 % of Cmp 1a and 90 % of Cmp 1a and 93 % of Cmp 1a; under setting [8], 65 % of Cmp 1a and 81 % of Cmp 1a and 77 % of Cmp 1a and 70 % of Cmp 1a and 86 % of Cmp 1a. The “Ca2+ signal (% of Cmp 1a)” value under setting [9] was 63 % of Cmp 1a (2×) and 64 % of Cmp 1a and 53 % of Cmp 1a and 56 % of Cmp 1a; the “Ca2+ signal (% of Cmp 1a)” value under setting [10] was 46 % of Cmp 1a and 38 % of Cmp 1a and 39 % of Cmp 1a and 41 % of Cmp 1a and 52 % of Cmp 1a; the “Ca2+ signal (% of Cmp 1a)” value under setting [11] is 14 % of Cmp 1a and 11 % of Cmp 1a (2×) and 15 % of Cmp 1a and 18 % of Cmp 1a; the “Ca2+ signal (% of Cmp 1a)” value under setting [12] was 3.23 % of Cmp 1a and -2.25 % of Cmp 1a and 2.37 % of Cmp 1a and 7.37 % of Cmp 1a and 3.35 % of Cmp 1a; the “Ca2+ signal (% of Cmp 1a)” value under setting [13] is 5 % of Cmp 1a and -0.0349 % of Cmp 1a and -0.541 % of Cmp 1a and 0.358 % of Cmp 1a and 0.331 % of Cmp 1a. In addition, where the note is “Ca2+ mobilization EC50”, the “fold improved potency compared to compound 1” value worked out at 3 fold. Further, under setting [2], the EC50 was 50 nM. The Emax (commonly the size of the effect at its maximum, as opposed to the concentration needed) under setting [3] turned out to be 116 ± 6%.

Regarding `Cc1cc(-c2nc(CC(=O)NC(C)c3ccccc3)no2)n(C)n1` (stereo not shown) [Compound 1.16, CC(C1=CC=CC=C1)NC(CC2=NOC(C3=CC(C)=NN3C)=N2)=O], the “Ca2+ signal (% of Cmp 1a)” value by setting is: under setting [1], 103 % of Cmp 1a and 82 % of Cmp 1a and 85 % of Cmp 1a; under setting [4], 93 % of Cmp 1a and 107 % of Cmp 1a and 110 % of Cmp 1a and 60 % of Cmp 1a; under setting [5], 86 % of Cmp 1a and 100 % of Cmp 1a and 83 % of Cmp 1a and 67 % of Cmp 1a; under setting [6], 73 % of Cmp 1a and 90 % of Cmp 1a and 92 % of Cmp 1a and 46 % of Cmp 1a; under setting [7], 52 % of Cmp 1a and 66 % of Cmp 1a and 72 % of Cmp 1a and 20 % of Cmp 1a; under setting [8], 27 % of Cmp 1a and 50 % of Cmp 1a and 60 % of Cmp 1a and -0.5 % of Cmp 1a. Besides, the “Ca2+ signal (% of Cmp 1a)” value is, setting by setting: under setting [9], 9 % of Cmp 1a and 39 % of Cmp 1a and 26 % of Cmp 1a and -9.5 % of Cmp 1a; under setting [10], 0.333 % of Cmp 1a and 7 % of Cmp 1a and 17 % of Cmp 1a and 1.5 % of Cmp 1a; under setting [11], -3 % of Cmp 1a (2×) and -1 % of Cmp 1a and 9 % of Cmp 1a; under setting [12], 0 % of Cmp 1a and -5 % of Cmp 1a and 15 % of Cmp 1a and -2.5 % of Cmp 1a; under setting [13], 1.67 % of Cmp 1a and -3 % of Cmp 1a and 20 % of Cmp 1a and -7 % of Cmp 1a. Also, the EC50 under setting [14] is 631 nM. Further, the maximal effect (Emax) under setting [3] worked out at 93 ± 11%.

For `Cc1noc(CNC(=O)C2(C)CCCCN2C(=O)c2ccccc2)n1` (stereo not shown) [Compound 4, CC1=NOC(CNC(=O)C2(C)CCCCN2C(=O)C=3C=CC=CC3)=N1], the “Ca2+ signal (% of Cmp 1a)” value is -4.2 % of Cmp 1a and 0.43 % of Cmp 1a (0.1 µM, individual replicates (Supplementary Figure 3)); 9.8 % of Cmp 1a and 4.1 % of Cmp 1a (1 µM, individual replicates (Supplementary Figure 3)); 51.3 % of Cmp 1a and 47.8 % of Cmp 1a (10 µM, individual replicates (Supplementary Figure 3)); 75 % of Cmp 1a and 80 % of Cmp 1a and 81 % of Cmp 1a (Agonist mode, individual replicates (Supplementary Figure 1)); 98 % of Cmp 1a and 82 % of Cmp 1a (log [Compound] M -4.5, replicate experiments); 75 % of Cmp 1a and 63 % of Cmp 1a (log [Compound] M -5.0, replicate experiments). In addition, the “Ca2+ signal (% of Cmp 1a)” value was 44 % of Cmp 1a and 46 % of Cmp 1a (log [Compound] M -5.5, replicate experiments); 13 % of Cmp 1a and 24 % of Cmp 1a (log [Compound] M -6.0, replicate experiments); 4.41 % of Cmp 1a and 3 % of Cmp 1a (log [Compound] M -6.5, replicate experiments); 3.62 % of Cmp 1a and -1.16 % of Cmp 1a (log [Compound] M -7.0, replicate experiments); -4.26 % of Cmp 1a and -2.55 % of Cmp 1a (log [Compound] M -7.5, replicate experiments); -0.711 % of Cmp 1a and -3.49 % of Cmp 1a (log [Compound] M -8.0, replicate experiments). In addition, the “Ca2+ signal (% of Cmp 1a)” value runs as follows: (log [Compound] M -8.5, replicate experiments) 5.56 % of Cmp 1a and 4.65 % of Cmp 1a; (log [Compound] M -9.0, replicate experiments) -1.86 % of Cmp 1a and -5 % of Cmp 1a; (primary screen, 10 µM compound, agonist mode, three columns = independent experiments) 75 % of Cmp 1a and 80 % of Cmp 1a and 81 % of Cmp 1a. For the same molecule, the EC50 under setting [14] is 3980 nM. In addition, the maximal effect (Emax) under setting [3] came to 100 ± 7%.

On to `Cc1cscc1-c1nc(CC(=O)N[C@@H](C)c2ccccc2)no1` [1.1(S)], for which the EC50 under setting [2] worked out at 8 nM. Further, the maximum response (Emax) (Supplementary Table 7, read-out: Emax (%), Ca2+ mobilization) was determined as 121 ± 11%. In addition, the “Ca2+ signal (% of Cmp 1a)” value was 28 % of Cmp 1a and 50 % of Cmp 1a and 51 % of Cmp 1a (log [Compound] M -8.5, individual replicates); 24 % of Cmp 1a and 31 % of Cmp 1a and 22 % of Cmp 1a (log [Compound] M -9.0, individual replicates); 0 % of Cmp 1a (log [Compound] M -12.0, individual replicates); 102 % of Cmp 1a and 114 % of Cmp 1a and 136 % of Cmp 1a (log [compound] M -4.5, individual replicates); 108 % of Cmp 1a and 117 % of Cmp 1a and 136 % of Cmp 1a (log [compound] M -5.0, individual replicates); 90 % of Cmp 1a and 125 % of Cmp 1a and 141 % of Cmp 1a (log [compound] M -5.5, individual replicates). In addition, the “Ca2+ signal (% of Cmp 1a)” value (log [compound] M -6.0, individual replicates) was 102 % of Cmp 1a and 120 % of Cmp 1a and 136 % of Cmp 1a; the “Ca2+ signal (% of Cmp 1a)” value (log [compound] M -6.5, individual replicates) was 96 % of Cmp 1a and 104 % of Cmp 1a and 131 % of Cmp 1a; the “Ca2+ signal (% of Cmp 1a)” value (log [compound] M -7.0, individual replicates) is 104 % of Cmp 1a and 95 % of Cmp 1a and 127 % of Cmp 1a; the “Ca2+ signal (% of Cmp 1a)” value (log [compound] M -7.5, individual replicates) was 92 % of Cmp 1a and 77 % of Cmp 1a and 113 % of Cmp 1a; the “Ca2+ signal (% of Cmp 1a)” value (log [compound] M -8.0, individual replicates) was 61 % of Cmp 1a and 62 % of Cmp 1a and 73 % of Cmp 1a.

On to `COc1cc(-c2nc(CC(=O)NC(C)c3ccccc3)no2)ccn1` (stereo not shown) [Compound 1.7, COC1=NC=CC(C2=NC(CC(NC(C3=CC=CC=C3)C)=O)=NO2)=C1], for which the “Ca2+ signal (% of Cmp 1a)” value under setting [1] was 105 % of Cmp 1a and 108 % of Cmp 1a and 111 % of Cmp 1a; the “Ca2+ signal (% of Cmp 1a)” value under setting [4] is 109 % of Cmp 1a and 102 % of Cmp 1a and 120 % of Cmp 1a; the “Ca2+ signal (% of Cmp 1a)” value under setting [5] is 102 % of Cmp 1a and 110 % of Cmp 1a and 134 % of Cmp 1a; the “Ca2+ signal (% of Cmp 1a)” value under setting [6] was 95 % of Cmp 1a and 141 % of Cmp 1a and 154 % of Cmp 1a; the “Ca2+ signal (% of Cmp 1a)” value under setting [7] was 70 % of Cmp 1a and 89 % of Cmp 1a and 113 % of Cmp 1a; the “Ca2+ signal (% of Cmp 1a)” value under setting [8] was 61 % of Cmp 1a and 84 % of Cmp 1a and 68 % of Cmp 1a. Further, the “Ca2+ signal (% of Cmp 1a)” value is, setting by setting: under setting [9], 40 % of Cmp 1a and 48 % of Cmp 1a and 53 % of Cmp 1a; under setting [10], 13 % of Cmp 1a and 22 % of Cmp 1a and 34 % of Cmp 1a; under setting [11], 1.88 % of Cmp 1a and 6 % of Cmp 1a and 10 % of Cmp 1a; under setting [12], 4.28 % of Cmp 1a and 11 % of Cmp 1a and 7 % of Cmp 1a; under setting [13], -0.46 % of Cmp 1a and 10 % of Cmp 1a and 7 % of Cmp 1a. The EC50 under setting [14] is 200 nM. Under setting [3], the Emax came out at 113 ± 9%.
